Source: patent publication US7592467B2, “Inhibitors of prolyl endopeptidase” (Probiodrug AG, priority 2005, dated 2009)

Key:
[1] = tested on: U-343 and SH-SY5Y cells; assay: β-Amyloid ELISA, secreted β-amyloid peptides 1-40 and 1-42; assay type: cell-based; conditions: Homo sapiens, inhibitor 20 μM, 24 hours, conditioned medium, untreated cells = 100%, cell line and peptide (1-40/1-42) not given, read-out: Extracellular Aβ-concentration, % of control
Protocol: The human glioma cell line, U-343 and the human neuroblastoma cell line, SH-SY5Y were maintained in Dulbecco's modified Eagle's medium (DMEM) containing 10% fetal bovine serum (Gibco BRL, Karlsruhe, Germany) and incubated at 37° C. in a 5% CO2 atmosphere. Culture media contained in general 60 μg/ml gentamycin (Gibco BRL, Karlsruhe, Germany).
To quantify intracellular and extracellular concentrations of 0-amyloid peptides, 1-40 and 1-42, U-343 and SH-SY5Y cells were cultured in 6 well plates (1.5×10^6 cells/well) and treated with specific PEP inhibitors (20 μM each) for 24 hours. For quantitation of secreted β-amyloid peptides the conditioned medium was collected and concentrated by lyophylisation. Likewise, after determination of the cell numbers/well (casy cell counter I, Schärfe System, Reutlingen, Germany), cells were lyzed with cell extraction buffer (Biosource, Solingen, Germany) according to the manufacturer's protocol. The protein concentration was determined by the method of Bradford (1976). Aliquots of 100 μl were used to quantify β-amyloid peptides 1-40 and 1-42 in quadruplicate by ELISA (IBL, Hamburg, Germany) following the manufacturer's instructions. All obtained intracellular and extracellular concentrations were normalized to cell numbers and protein concentration, respectively.
For the calculation of the concentration of β-amyloid peptides 1-40 and 1-42 in the cell culture medium after PEP-inhibitor treatment, the basal concentration of β-amyloid peptides 1-40 and 1-42 in the cell culture medium of untreated cell samples was set to 100%. The results of the measurement of the concentration of β-amyloid peptides 1-40 and 1-42 with PEP-inhibitor treated cells are presented as % of the untreated cell samples.

[2] = molecular target: T1, Recombinant human prolyl oligopeptidase (Homo sapiens, UniProt P48147); assay: Determination of IC50- and Ki-values of PEP-inhibitors (chromogenic substrate Z-Gly-Pro-pNA); assay type: biochemical; conditions: substrate Z-Gly-Pro-pNA 0.15 mM, HEPES buffer pH 7.6, 30° C.; n.i. = no inhibition
T1 construct: made in house; host or cells: E. coli
T1 sequence (P48147 1-710): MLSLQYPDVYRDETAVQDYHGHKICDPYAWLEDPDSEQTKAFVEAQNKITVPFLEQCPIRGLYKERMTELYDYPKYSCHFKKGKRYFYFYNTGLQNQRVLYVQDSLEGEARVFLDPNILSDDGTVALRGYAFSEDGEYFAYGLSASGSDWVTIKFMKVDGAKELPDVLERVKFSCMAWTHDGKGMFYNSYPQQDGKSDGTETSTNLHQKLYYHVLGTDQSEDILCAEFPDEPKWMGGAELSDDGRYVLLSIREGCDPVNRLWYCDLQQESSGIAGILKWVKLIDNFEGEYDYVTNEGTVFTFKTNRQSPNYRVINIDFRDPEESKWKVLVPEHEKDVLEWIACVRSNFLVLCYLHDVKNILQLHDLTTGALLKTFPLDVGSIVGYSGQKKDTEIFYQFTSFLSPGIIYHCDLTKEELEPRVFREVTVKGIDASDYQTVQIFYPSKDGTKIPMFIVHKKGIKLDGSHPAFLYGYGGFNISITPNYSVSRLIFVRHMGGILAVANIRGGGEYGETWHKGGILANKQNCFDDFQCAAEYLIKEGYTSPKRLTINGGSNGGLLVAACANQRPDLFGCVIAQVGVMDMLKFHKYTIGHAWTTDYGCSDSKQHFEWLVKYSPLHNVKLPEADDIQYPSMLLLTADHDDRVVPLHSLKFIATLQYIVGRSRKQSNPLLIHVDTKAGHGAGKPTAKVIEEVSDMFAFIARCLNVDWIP
Protocol: Biological Evaluation, Determination of IC50- and Ki-Values of PEP-Inhibitors
Recombinant human prolyl oligopeptidase was used for measurement. Recombinant expression was performed in E. coli under standard conditions as described elsewhere in the state of the art.
For activity measurements the chromogenic substrate Z-Gly-Pro-pNA was used in HEPES buffer pH 7.6 containing 50 mM HEPES, 200 mM NaCl, 1 mM EDTA, 1 mM DTT, 0.006% Brij35. Measurements were carried out at 30° C. Release of pNA were monitored continuously at 405 nm.
IC50 values were calculated using non-linear regression to a 4-parameter equation (Prism 4.0, GraphPad).
For Ki determination 4 substrate (0.15 mM, 0.08 mM 0.04 mM, 0.02 mM) and 7 inhibitor concentrations in an appropriate range were used. Calculations were performed by multiple non-linear regression analysis to the equation for competitive inhibition using GraFit 5.0 Software (Erithacus Software).

[3] = tested on: human glial U-343 cells; assay: IL-6 ELISA, basal secretion of IL-6; assay type: cell-based; conditions: inhibitor 20 μM, 24 hours, serum-free medium, untreated control = 100%, read-out: Extracellular IL-6 concentration, % of untreated cells
Protocol: To analyze basal secretion of IL-6, human glial U-343 cells were cultured in 6 well plates (1.5×10^6 cells/well, Greiner) and treated with specific PEP inhibitors as indicated (20 μM each) for 24 hours in serum-free D-MEM medium (invitrogen). Aliquots of 40 μl conditioned medium were used to quantify the amount of secreted IL-6 by an human-specific IL-6 ELISA (Biosource) following the manufacturer's instructions. All data were obtained in quadruplicate. For the calculation of the IL-6 concentration in the cell culture medium after PEP-inhibitor treatment, the basal IL-6 concentration of the cell culture medium of untreated cell samples was set to 100%. The results of the measurement of the IL-6 concentration with PEP-inhibitor treated cells are presented as % of the untreated cell samples.

What does the source list for `O=C(OCN1C(=O)c2ccccc2C1=O)c1ccccc1C(=O)c1cccs1` [Example 9]?
activity at 20 µM [1]: 113%; IC50 [2]: n.i.; activity at 20 µM [3]: 124%

Which activity at 20 µM [1] does the source give for `O=C(OCCc1cccs1)c1ccccc1C(=O)c1cccs1` [Example 14, 2-(Thienyl-ethyl-oxycarbonyl)-phenylthenon] here?
Its activity at 20 µM is 200%.

And the activity at 20 µM [3]?
The activity at 20 µM was 41.4%.

Which activity at 20 µM [1] does the source give for `O=C(OCCc1ccccc1)c1ccccc1C(=O)c1ccco1` [Example 15, 2-(Phenyl-ethyl-oxycarbonyl)-1-(furylcarbonyl)-benzol] here?
The activity at 20 µM was 144%.

What about the activity at 20 µM [3] of the same compound?
Its activity at 20 µM is 48.2%.

How did the activity at 20 µM [1] turn out when `Cc1ccc(CCOC(=O)c2ccccc2C(=O)c2cccs2)cc1` [Example 16, 2-(4-Methylphenylethyl-oxycarbonyl)-phenylthenon] was run?
Its activity at 20 µM is 180%.

And the activity at 20 µM [3]?
The activity at 20 µM was 26.7%.

Which activity at 20 µM [1] does the source give for `O=C(OCCc1ccsc1)c1ccccc1C(=O)c1cccs1` [Example 17] here?
Its activity at 20 µM is 237%.

And the activity at 20 µM [3]?
Its activity at 20 µM is 26.5%.

How did the activity at 20 µM [1] turn out when `COc1cccc(COC(=O)c2ccccc2C(=O)c2cccs2)c1` [Example 18] was run?
Its activity at 20 µM is 106%.

And the IC50 [2]?
Its IC50 is “n.i”.

What about the activity at 20 µM [3] of the same compound?
The activity at 20 µM was 63.3%.

With `O=C(OCc1ccc(Cl)cc1)c1ccccc1C(=O)c1cccs1` [Example 19, 2-(4-Chlorophenyl-methyl-oxycarbonyl)-phenylthenon] as the compound, how does the activity at 20 µM [1] read?
Its activity at 20 µM is 195%.

What about the activity at 20 µM [3] of the same compound?
The activity at 20 µM was 35.2%.

What does the source list for `O=C(OCc1cccc(Cl)c1)c1ccccc1C(=O)c1cccs1` [Example 20]?
activity at 20 µM [1]: 180%; activity at 20 µM [3]: 49.2%

Which activity at 20 µM [1] does the source give for `O=C(OCc1ccccc1Cl)c1ccccc1C(=O)c1cccs1` [Example 21] here?
Its activity at 20 µM is 220%.

What about the activity at 20 µM [3] of the same compound?
Its activity at 20 µM is 62.1%.

Which results are given for `O=C(OCc1cccc([N+](=O)[O-])c1)c1ccccc1C(=O)c1cccs1` [Example 22]?
activity at 20 µM [1]: 153%; activity at 20 µM [3]: 103%

With `O=C(OCc1ccccc1[N+](=O)[O-])c1ccccc1C(=O)c1cccs1` [Example 23] as the compound, how does the activity at 20 µM [1] read?
Its activity at 20 µM is 240%.

And the activity at 20 µM [3]?
Its activity at 20 µM is 109%.

Which activity at 20 µM [1] does the source give for `O=C(OCCc1cc2ccccc2s1)c1ccccc1C(=O)c1cccs1` [Example 24, 2-(Benzo[b]thiophen-2-yl-ethyl-oxycarbonyl)-phenylthenon] here?
Its activity at 20 µM is 165%.

And the activity at 20 µM [3]?
The activity at 20 µM was 66.9%.

For `O=C(OCCCc1cccs1)c1ccccc1C(=O)c1cccs1` [Example 25], which activity at 20 µM [1] is on record?
The activity at 20 µM was 197%.

And the activity at 20 µM [3]?
Its activity at 20 µM is 69%.

What does the source list for `O=C(OCCc1ccccc1Cl)c1ccccc1C(=O)c1cccs1` [Example 26]?
activity at 20 µM [1]: 207%; activity at 20 µM [3]: 36.6%

With `O=C(NCc1ccccc1)c1ccccc1C(=O)c1cccs1` [Example 29, 2-(Phenylmethyl-amincarbonyl)-phenylthenon] as the compound, how does the activity at 20 µM [1] read?
The activity at 20 µM was 109%.

What about the activity at 20 µM [3] of the same compound?
Its activity at 20 µM is 121%.

Which results are given for `O=C(NCCc1ccccc1)c1ccccc1C(=O)c1cccs1` [Example 30]?
activity at 20 µM [1]: 205%; activity at 20 µM [3]: 42.3%

How did the activity at 20 µM [1] turn out when `O=C(NCCCc1ccccc1)c1ccccc1C(=O)c1cccs1` [Example 31] was run?
Its activity at 20 µM is 203%.

What about the activity at 20 µM [3] of the same compound?
The activity at 20 µM was 30%.

For `O=C(NCCc1ccccc1)c1ccccc1C(=O)c1ccco1` [Example 32], which activity at 20 µM [1] is on record?
Its activity at 20 µM is 63.9%.

What about the activity at 20 µM [3] of the same compound?
The activity at 20 µM was 32%.
